Results: ChEMBL document CHEMBL3217729, “Sangamides, a new class of cyclophilin-inhibiting host-targeted antivirals for treatment of HCV infection” (Medchemcomm, 2012)
Values after ≈ are worked out from the molar mass of the structure shown.

Experiments:
[1] = target: T1, Peptidyl-prolyl cis-trans isomerase A (Homo sapiens, UniProt P62937); assay: Inhibition of PPIase activity of recombinant CypA (unknown origin) assessed as chymotrypsin-mediated N-succinyl-Ala-Ala-Pro-Phe-p-nitroanilide hydrolysis after 1 hr by spectrophotometric analysis
T1 sequence (P62937 whole entry): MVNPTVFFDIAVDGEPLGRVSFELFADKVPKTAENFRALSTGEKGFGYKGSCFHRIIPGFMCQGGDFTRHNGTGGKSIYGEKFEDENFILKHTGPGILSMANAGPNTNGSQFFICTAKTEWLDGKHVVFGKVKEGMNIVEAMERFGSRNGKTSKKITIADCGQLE

in vitro = conditions: mouse, liver microsomes
Description: Half life in mouse liver microsomes at 1 uM by LC-MS/MS analysis

[2] = Half life in human liver microsomes at 1 uM by LC-MS/MS analysis; type: ADME
[3] = Solubility of the compound in phosphate buffered saline at pH 7.4 after 4 hrs by LC-MS/MS analysis
Hepatitis C virus [4] = assay: Antiviral activity against Hepatitis C virus genotype 1b I389luc-ubi-neo/NS3-3'/5.1 subgenomic replicon infected in human Huh5-2 cells after 4 days by luciferase assay; type: functional, cell-based, Hepacivirus hominis; conditions: Huh-5-2, 96 h
[5] = Half life in human hepatocytes at 1 uM by LC-MS/MS analysis; type: ADME, cell-based, Hepatocyte
[6] = Selectivity index, ratio of CC50 for human Huh5-2 cells to EC50 for Hepatitis C virus genotype 1b I389luc-ubi-neo/NS3-3'/5.1 subgenomic replicon infected in human Huh5-2 cells; type: toxicity, cell-based, Huh-5-2; conditions: read-out: Ratio CC50/EC50
[7] = target: T1, Peptidyl-prolyl cis-trans isomerase A; assay: Inhibition of recombinant GST-tagged CypA (unknown origin)/HCV Con1 NS5A-His interaction after 16 hrs by ELISA
[8] = Cytostatic activity against human Huh5-2 cells assessed as decrease in cell proliferation after 3 days by MTS method; type: ADME, cell-based, Huh-5-2
Hepatitis C virus [9] = assay: Antiviral activity against Hepatitis C virus genotype 2a JFH-1 infected in human Huh7 cells assessed as decrease in subgenomic RNA level after 72 hrs by RT-PCR analysis; type: functional, cell-based, Hepacivirus hominis; conditions: genotype 2a JFH-1, Huh-7, 72 h
Hepatitis C virus [10] = assay: Antiviral activity against Hepatitis C virus genotype 1b Con1 infected in human Huh7 cells assessed as decrease in subgenomic RNA level after 72 hrs by RT-PCR analysis; type: functional, cell-based, Hepacivirus hominis; conditions: genotype 1b Con1, Huh-7, 72 h
Hepatitis C virus [11] = assay: Antiviral activity against Hepatitis C virus genotype 1a H77 infected in human Huh7 cells assessed as decrease in subgenomic RNA level after 72 hrs by RT-PCR analysis; type: functional, cell-based, Hepacivirus hominis; conditions: genotype 1a H77, Huh-7, 72 h

SMILES | IC50 [1] | half-life at 1 µM (in vitro) | half-life at 1 µM [2] | solubility at 4 h [3] | EC50 (Hepatitis C virus [4]) | EC90 (Hepatitis C virus [4]) | half-life at 1 µM [5] | selectivity ratio [6] | IC50 [7] | CC50 at 72 h [8] | EC50 (Hepatitis C virus [9]) | EC50 (Hepatitis C virus [10]) | EC50 (Hepatitis C virus [11])
CC(=O)CC[C@H]1C(=O)N[C@@H](C(C)C)C(=O)N[C@@H](Cc2cccc(O)c2)C(=O)N2CCCC(N2)C(=O)O[C@H](/C(C)=C/C=C/C(=O)Nc2ccccn2)C/C=C/C=C/[C@H](O)[C@H](C)[C@H]1O (stereo in doubt) | 4.1 nM | 8.8 min | 4.4 min | 61 µM (≈ 52.3 µg/mL) | 167 nM | 740 nM | 95 min | 240 | 390 nM | 40000 nM |  |  | 
CC(=O)CC[C@H]1C(=O)N[C@@H](C(C)C)C(=O)N[C@@H](Cc2cccc(O)c2)C(=O)N2CCCC(N2)C(=O)O[C@H](/C(C)=C/C=C/C(=O)Nc2ccc(-c3ccccc3)cc2)C/C=C/C=C/[C@H](O)[C@H](C)[C@H]1O (stereo in doubt) |  | 1.3 min | 2.3 min | 2 µM (≈ 1.86 µg/mL) | 208 nM | 1150 nM | > 240 min | > 481 | 520 nM | > 100000 nM |  |  | 
C/C=C/C[C@@H](C)[C@@H](O)[C@H]1C(=O)N[C@@H](CC)C(=O)N(C)CC(=O)N(C)[C@@H](CC(C)C)C(=O)N[C@@H](C(C)C)C(=O)N(C)[C@@H](CC(C)C)C(=O)N[C@@H](C)C(=O)N[C@H](C)C(=O)N(C)[C@@H](CC(C)C)C(=O)N(C)[C@@H](CC(C)C)C(=O)N(C)[C@@H](C(C)C)C(=O)N1C [CYCLOSPORINE] |  |  |  |  | 306 nM | 1000 nM |  |  |  |  | 455 nM | 137 nM | 198 nM
CNC(=O)/C=C/C=C(\C)[C@@H]1C/C=C/C=C/[C@H](O)[C@H](C)[C@@H](O)[C@@H](CCC(C)=O)C(=O)N[C@@H](C(C)C)C(=O)N[C@@H](Cc2cccc(O)c2)C(=O)N2CCCC(N2)C(=O)O1 (stereo in doubt) |  | 22.5 min | 37.2 min | > 100 µM | 8000 nM | 60200 nM | 192 min | > 13 | 500 nM | > 100000 nM |  |  | 
C=CCNC(=O)/C=C/C=C(\C)[C@@H]1C/C=C/C=C/[C@H](O)[C@H](C)[C@@H](O)[C@@H](CCC(C)=O)C(=O)N[C@@H](C(C)C)C(=O)N[C@@H](Cc2cccc(O)c2)C(=O)N2CCCC(N2)C(=O)O1 (stereo in doubt) |  | 10.6 min | 23.9 min |  | 1600 nM | 8500 nM | 139 min | 30 | 360 nM | 48000 nM |  |  | 
CCC[C@H](NC(=O)[C@@H]1[C@H]2CCC[C@H]2CN1C(=O)[C@@H](NC(=O)[C@@H](NC(=O)c1cnccn1)C1CCCCC1)C(C)(C)C)C(=O)C(=O)NC1CC1 |  |  |  |  | 235 nM | 838 nM |  | > 315 |  | > 74000 nM |  | 720 nM | 
CC(=O)CC[C@H]1C(=O)N[C@@H](C(C)C)C(=O)N[C@@H](Cc2cccc(O)c2)C(=O)N2CCCC(N2)C(=O)O[C@H](/C(C)=C/C=C/C(=O)N(CC(C)C)CC(C)C)C/C=C/C=C/[C@H](O)[C@H](C)[C@H]1O (some centres not stated) |  | 2.5 min | 21.6 min |  | 309 nM | 1100 nM | 98 min | 6.8 | 390 nM | 2100 nM |  |  | 
CC(=O)CC[C@H]1C(=O)N[C@@H](C(C)C)C(=O)N[C@@H](Cc2cccc(O)c2)C(=O)N2CCCC(N2)C(=O)O[C@H](/C(C)=C/C=C/C(=O)Nc2ccncc2)C/C=C/C=C/[C@H](O)[C@H](C)[C@H]1O (some centres not stated) |  | 15.2 min | 32.2 min | 15 µM (≈ 12.9 µg/mL) | 8060 nM | 31900 nM | > 240 min | > 12.4 | 550 nM | > 100000 nM |  |  | 
CCN(CC)C(=O)/C=C/C=C(\C)[C@@H]1C/C=C/C=C/[C@H](O)[C@H](C)[C@@H](O)[C@@H](CCC(C)=O)C(=O)N[C@@H](C(C)C)C(=O)N[C@@H](Cc2cccc(O)c2)C(=O)N2CCCC(N2)C(=O)O1 (some centres not stated) |  | 8.4 min | 16.8 min | > 100 µM | 204 nM | 1200 nM | 94 min | > 490 | 350 nM | > 100000 nM |  |  | 
